Source: patent US9394304B2, “Imidazopyridine derivatives” (Hoffmann-La Roche Inc., priority 2013, dated 2016)

Target: h-TRPA1 (Homo sapiens (Human), UniProt O75762)
Assay: Dose response calcium flux (FLIPR) assay, ChanTest hTRPA1-CHO stably transfected cell line, cinnamaldehyde agonist
Type: cell-based
Details: for inhibition at 1 µM / inhibition at 30 µM / inhibition at 3 µM / inhibition at 10 µM: % inhibition of the inhibitor control, read-out: Inhibition % @ concentration; for IC50: CHO-K1 Tet-On TRPA1 cells, calcium flux, 100 uM cinnamaldehyde
Method: IC50 Determinations of Exemplified Compounds
Dose Response Assay: ChanTest hTRPA1-CHO Stably Transfected Cell Line
To induce expression, tetracycline was added to blasticidin/zeocin-free media at a final concentration of 1 ug/ml. Experiments were run at 24 hours post induction.
Plating Conditions CHOK1/TRPA1 Cells:
Harvested cells with 0.025% trypsin/EDTA.
Resuspended cells in growth media without selection antibiotics.
Measured cell density and diluted to 2.4×10^5 cells/ml in media containing 1 ug/ml Doxycycline Plate 25 ul/well into 384 well black/clear tissue culture-treated plates.
Incubated overnight at 37° C.
Replacement Buffer: Hank's Balanced Salt Solution, 20 mM HEPES along with 0.005% BSA and 2× Probenecid
Dye Loading Buffer: Cal-3 NW Calcium dye was prepared by dissolving the contents of one vial with 500 ml Hank's Balanced Salt Solution containing 20 mM HEPES. • Control compounds for CHOK1/TRPA1 cells:
AP-18, stock 10 mM, prepare 3.5× compound dilution in a Compound Buffer (HBSS/20 mM HEPES/0.005% BSA)—final concentration 10 uM.
Working solution 4.5× (final 100 uM in Compound Buffer: HBSS/20 mM HEPES/0.005% BSA)
Compounds dilutions were prepared from 5 or 10 mM stock (100% DMSO):
Compounds were tested at either 20 μM three folds dilution 11 steps out or 30 μM two folds dilution 11 steps out.
3 μl of diluted compound were transferred into Weidmann 384-well plate in duplicates side-by-side.
Compound plates were resuspended with 100 ul of HBSS/20 mM HEPES/0.005% BSA buffer (Compound Buffer):
Growth media was removed from the cell plates (20 ul) and 20 ul of the Replacement Buffer was added followed by addition of 25 ul of diluted dye. All three steps were performed using a Plate Washer BioTek 407. The plates were then incubated for 30′ at RT.
After incubation, both the cell and compound plates were brought to the FLIPR and 20 ul of the diluted compounds/antagonist/bk were transferred to the cell plates by the FLIPR. Plates were then incubated for 30′ at room temperature. After 30′ incubation, plates were returned to the FLIPR and 20 ul of 4.5× Cinnamaldehyde was added to the cell plates. During the compound addition as well as agonist addition, fluorescence readings were taken simultaneously from all 384 wells of the cell plate every 1.5 seconds. Five readings were taken to establish a stable baseline, then 20 ul of sample was rapidly (30 ul/sec) and simultaneously added to each well of the cell plate. The fluorescence was continuously monitored before, during and after sample/agonist addition for a total elapsed time of 100 seconds (compound addition) and 120 seconds (agonist addition). Responses (increase in peak fluorescence) in each well following agonist addition was determined. The initial fluorescence reading from each well, prior to ligand stimulation, was used a zero baseline value for the data from that well.

Chain of h-TRPA1 (O75762 whole entry): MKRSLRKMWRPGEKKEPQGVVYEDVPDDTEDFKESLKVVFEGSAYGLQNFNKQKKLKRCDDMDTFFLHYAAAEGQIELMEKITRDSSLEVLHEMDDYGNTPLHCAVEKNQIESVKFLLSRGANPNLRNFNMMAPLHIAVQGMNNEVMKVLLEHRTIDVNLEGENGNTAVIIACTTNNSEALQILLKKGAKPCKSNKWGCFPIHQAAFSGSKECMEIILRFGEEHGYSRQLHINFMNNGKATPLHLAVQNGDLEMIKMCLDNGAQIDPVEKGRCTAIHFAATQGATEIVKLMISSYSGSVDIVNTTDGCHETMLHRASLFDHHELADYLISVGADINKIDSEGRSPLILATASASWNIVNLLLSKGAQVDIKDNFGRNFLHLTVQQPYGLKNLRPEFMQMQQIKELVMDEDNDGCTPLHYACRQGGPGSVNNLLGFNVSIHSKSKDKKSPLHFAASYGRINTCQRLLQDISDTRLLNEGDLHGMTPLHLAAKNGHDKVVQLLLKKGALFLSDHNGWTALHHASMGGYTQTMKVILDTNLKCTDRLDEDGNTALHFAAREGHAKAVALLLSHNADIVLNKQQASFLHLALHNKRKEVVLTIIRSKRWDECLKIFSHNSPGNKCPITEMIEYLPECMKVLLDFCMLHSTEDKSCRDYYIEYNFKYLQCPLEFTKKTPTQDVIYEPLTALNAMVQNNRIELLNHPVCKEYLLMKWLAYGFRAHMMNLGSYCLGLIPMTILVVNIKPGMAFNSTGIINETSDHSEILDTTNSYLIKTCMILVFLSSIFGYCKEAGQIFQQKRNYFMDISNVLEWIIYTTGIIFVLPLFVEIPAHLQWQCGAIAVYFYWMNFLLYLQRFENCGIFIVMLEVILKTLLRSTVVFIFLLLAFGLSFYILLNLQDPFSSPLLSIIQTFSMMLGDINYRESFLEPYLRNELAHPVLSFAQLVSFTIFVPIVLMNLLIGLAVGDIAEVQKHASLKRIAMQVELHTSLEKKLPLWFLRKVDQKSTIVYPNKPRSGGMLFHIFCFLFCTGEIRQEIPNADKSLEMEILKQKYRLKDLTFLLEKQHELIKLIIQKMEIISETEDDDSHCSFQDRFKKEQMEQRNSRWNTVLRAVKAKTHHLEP

SMILES | inhibition at 1 µM [%] | IC50 [µM] | inhibition at 30 µM [%] | inhibition at 3 µM [%] | inhibition at 10 µM [%]
CC(C)Nc1c(-c2cccc(Cl)c2)nc2ccc(Br)cn12 [Example 1] | 100 | 0.132 |  |  | 
CC(C)Nc1c(-c2cccc(Cl)c2)nc2ccc(Cl)cn12 [Example 2, [6-Chloro-2-(3-chloro-phenyl)-imidazo[1,2-a]pyridin-3-yl]-isopropyl-amine] |  | 0.195 | 100 |  | 
COC(=O)CNc1c(-c2cccc(F)c2)nc2ccc(F)cn12 [Example 3, [6-Fluoro-2-(3-fluoro-phenyl)-imidazo[1,2-a]pyridin-3-ylamino]-acetic acid methyl ester] |  | 3.29 | 74.3 |  | 
CC(C)(C)Nc1c(-c2cccc(F)c2)nc2ccc(C(F)(F)F)cn12 [Example 4, tert-Butyl-[2-(3-fluoro-phenyl)-6-trifluoromethyl-imidazo[1,2-a]pyridin-3-yl]-amine] |  | 1.33 |  | 100 | 
CC(C)(C)Nc1c(-c2cccc(C#N)c2)nc2ccc(C(F)(F)F)cn12 [Example 5, 3-(3-tert-Butylamino-6-trifluoromethyl-imidazo[1,2-a]pyridin-2-yl)-benzonitrile] |  | 0.854 | 100 |  | 
CC(C)(C)Nc1c(-c2cccc(C#N)c2)nc2ccc(Cl)cn12 [Example 6, 3-(3-tert-Butylamino-6-chloro-imidazo[1,2-a]pyridin-2-yl)-benzonitrile] |  | 2.13 |  |  | 90
Clc1cccc(-c2nc3ccc(Cl)cn3c2NC2CC2)c1 [Example 7, [6-Chloro-2-(3-chloro-phenyl)-imidazo[1,2-a]pyridin-3-yl]-cyclopropyl-amine] |  | 1.59 |  |  | 100
CC(C)(C)Nc1c(-c2cccc(Cl)c2)nc2c(Br)cc(Cl)cn12 [Example 8, [8-Bromo-6-chloro-2-(3-chloro-phenyl)-imidazo[1,2-a]pyridin-3-yl]-tert-butyl-amine] |  | 1.09 |  | 100 | 
Cc1cc2nc(-c3cccc(Cl)c3)c(NC(C)(C)C)n2cc1Br [Example 9, [6-Bromo-2-(3-chloro-phenyl)-7-methyl-imidazo[1,2-a]pyridin-3-yl]-tert-butyl-amine] |  | 0.229 | 100 |  | 
Cc1cc(Br)cn2c(NC(C)(C)C)c(-c3cccc(Cl)c3)nc12 [Example 10, [6-Bromo-2-(3-chloro-phenyl)-8-methyl-imidazo[1,2-a]pyridin-3-yl]-tert-butyl-amine] |  | 0.221 |  |  | 100
CC(C)(C)Nc1c(-c2cc(Cl)cc(Cl)c2)nc2ccc(C(F)(F)F)cn12 [Example 11, tert-Butyl-[2-(3,5-dichloro-phenyl)-6-trifluoromethyl-imidazo[1,2-a]pyridin-3-yl]-amine] |  | 1.33 | 98 |  | 
C#Cc1cccc(-c2nc3ccc(C(F)(F)F)cn3c2NC(C)(C)C)c1 [Example 12, tert-Butyl-[2-(3-ethynyl-phenyl)-6-trifluoromethyl-imidazo[1,2-a]pyridin-3-yl]-amine] | 100 | 0.11 |  |  | 
CC(C)(C)Nc1c(-c2cccc(Cl)c2)nc2cc(C(F)(F)F)ccn12 [Example 13, tert-Butyl-[2-(3-chloro-phenyl)-7-trifluoromethyl-imidazo[1,2-a]pyridin-3-yl]-amine] |  | 1.11 | 100 |  | 
CCNc1c(-c2cccc(Cl)c2)nc2ccc(C(F)(F)F)cn12 [Example 14, [2-(3-Chloro-phenyl)-6-trifluoromethyl-imidazo[1,2-a]pyridin-3-yl]-ethyl-amine] |  | 2.07 | 100 |  | 
C#Cc1cccc(-c2nc3ccc(C(F)(F)F)cn3c2NC(C)C)c1 [Example 15, [2-(3-Ethynyl-phenyl)-6-trifluoromethyl-imidazo[1,2-a]pyridin-3-yl]-isopropyl-amine] |  | 0.082 |  |  | 100
CC(C)Nc1c(-c2cccc(Cl)c2)nc2ccc(C(F)(F)F)cn12 [Example 16, [2-(3-Chloro-phenyl)-6-trifluoromethyl-imidazo[1,2-a]pyridin-3-yl]-isopropyl-amine] |  | 0.143 |  | 100 | 
CC(C)(C)Nc1c(-c2cccc(Br)c2)nc2ccc(C(F)(F)F)cn12 [Example 17, [2-(3-Bromo-phenyl)-6-trifluoromethyl-imidazo[1,2-a]pyridin-3-yl]-tert-butyl-amine] |  | 0.264 |  |  | 100
CC(C)(C)Nc1c(-c2cccc(C#N)c2)nc2ccc(F)cn12 [Example 18, 3-(3-tert-Butylamino-6-fluoro-imidazo[1,2-a]pyridin-2-yl)-benzonitrile] |  | 20.4 | 80.9 |  | 
